Source: patent publication US20240252472A1, “COMBINATIONS FOR TREATING CANCER” (Purdue Pharma L.P., priority 2023, published 2024)

How the values were obtained:
Type in all cases: in vivo
MM1S-luc derived tumors = experiment: Disseminated human myeloma model, CB17-SCID mice; details: EDO-S101 15 mg/kg i.v. weekly, daratumumab 8 mg/kg i.p. weekly, 4 weeks; vehicle 33 days
Method: MM1S-luc cells (3×10^6) were injected intravenously (i.v.) into CB17-SCID mice which were determined to have normal NK cells, monocytes and granulocytes (The Jackson Laboratory, Bar Harbor, ME, USA). Tumor development was monitored by non-invasive bioluminescence imaging (BLI) with a Xenogen IVIS 50 system (Caliper Life Sciences, Hopkinton, MA, USA). Mice were randomized into four groups (n=5/group): one receiving vehicle (i.v., weekly), another group receiving EDO-S101 (15 mg/kg i.v., weekly on Tuesdays), another group receiving daratumumab (8 mg/kg i.p., weekly on Wednesdays) and the last group receiving the double combination of EDO-S101+daratumumab. Both drugs were administered over a period of 4 weeks.
CB17-SCID mice bearing MM1S-luc derived tumors were treated with EDO-S101, daratumumab, a combination thereof, or vehicle, in accordance with the methods outlined above. MM1S-Luc cells (3×10^6) were intravenously injected into CB17-SCID mice. After 2 weeks, mice were randomized into four groups: one receiving vehicle (i.v., weekly), another group receiving EDO-S101 (15 mg/kg i.v., weekly on Tuesdays), another group receiving daratumumab (8 mg/kg i.p., weekly on Wednesdays) and the last group received the double combination of EDO-S101+daratumumab. Survival of mice analyzed with a Kaplan-Meier curve. Both drugs were administered over a period of 4 weeks.

[1] = tested on: subcutaneous plasmacytoma derived from MM.1S cells; experiment: First subcutaneous plasmacytoma model, NSG mice with human NK cells; details: EDO-S101 30 mg/kg i.v. weekly, daratumumab 8 mg/kg i.p. weekly, 4 weeks; vehicle 30 days
Method: For the first subcutaneous human plasmacytoma model, NSG mice (Charles River Laboratories, Wilmington, MA, USA) were subcutaneously inoculated into the right flank with 3×10^6 MM1S in 100 μL RPMI 1640 medium and 100 μL of Matrigel (BD Biosciences). When tumors developed, mice were injected with human NK cells isolated from buffy coats from healthy donors and randomized (4 mice/group) to receive: EDO-S101 (30 mg/kg, iv weekly), daratumumab (8 mg/kg, ip weekly), a combination thereof, or vehicle (PBS vehicle solution with 15% HPBCD, 1.5% acetic acid, and 1.25% NaHCO3). Both, NK cells and the treatments were administered over four consecutive weeks. Caliper measurements of the tumor diameters were performed three times a week, and the tumor volume was estimated as the volume of a 3D ellipse using the following formula: V=4/3π×(a/2)×(b/2)^2, where “a” and “b” correspond to the longest and shortest diameter, respectively. Animals were killed when their tumors reached 2 cm. Differences in tumor volumes between control and treated groups were evaluated using one-way analysis of variance and Dunn's post-hoc tests. […]

[2] = tested on: subcutaneous plasmacytoma derived from MM1.S cells; experiment: Second subcutaneous plasmacytoma model, CB17-SCID mice; details: EDO-S101 30 mg/kg i.v. weekly, daratumumab 8 mg/kg i.p. weekly, 4 weeks; vehicle 34 days
From the text: For the second subcutaneous human plasmacytoma model, CB17-SCID mice (The Jackson Laboratory) were used. CB17-SCID mice were randomised into groups (n=5). The design of the experiment (treatment doses and time schedule) was identical to the experiment described above with NSG mice except for the inoculation of NK cells, since CB17-SCID mice have their own functional NK cells.
For the second subcutaneous human plasmacytoma model, CB17-SCID mice (20 female mice, 5-6 weeks old; from The Jackson Laboratory) were used. The design of the experiment (treatment doses and time schedule) was identical to the one performed with NSG mice except for the inoculation of human NK cells, since CB17-SCID mice hold their own functional NK cells (Dorshkind et al., J Immunol 134:3798-3801, 1985).
In the second xenograft plasmacytoma model, CB17-SCID mice bearing a subcutaneous plasmacytoma derived from MM1.S cells were randomized to receive vehicle, daratumumab, EDO-S101 or the double combination. Mice were treated with EDO-S101 on Mondays and daratumumab was administered on Tuesdays. […] Furthermore, statistical differences in survival were also found between the combination vs vehicle (58 days±2.739 vs 34 days±2.191 days, respectively; p=0.003).

“daratumumab: anti-CD38 monoclonal antibody clinically approved for multiple myeloma [reference compound]” showed a median survival (MM1S-luc derived tumors) of 59 days, a median survival [1] of 34 days and an overall median survival [2] of 41 days.
